In patent US10934296B2, “4-imidazopyridazin-1-yl-benzamides as Btk inhibitors” (Merck Sharp & Dohme B.V., priority 2011, dated 2021):

Key:
Lck enzyme = Lck enzyme (Homo sapiens (Human), UniProt P06239); test: Lck enzyme activity, IMAP fluorescence polarization assay; details: 60 min pre-incubation, 6 μM ATP, bin bounds in μM
Btk enzyme (His-Btk) = Btk enzyme (His-Btk) (Homo sapiens (Human), UniProt Q06187); test: Btk enzyme activity, IMAP fluorescence polarization assay; details: 60 min pre-incubation, 5 μM ATP, bin bounds in nM
Chain of Btk enzyme (His-Btk) (Q06187 whole entry): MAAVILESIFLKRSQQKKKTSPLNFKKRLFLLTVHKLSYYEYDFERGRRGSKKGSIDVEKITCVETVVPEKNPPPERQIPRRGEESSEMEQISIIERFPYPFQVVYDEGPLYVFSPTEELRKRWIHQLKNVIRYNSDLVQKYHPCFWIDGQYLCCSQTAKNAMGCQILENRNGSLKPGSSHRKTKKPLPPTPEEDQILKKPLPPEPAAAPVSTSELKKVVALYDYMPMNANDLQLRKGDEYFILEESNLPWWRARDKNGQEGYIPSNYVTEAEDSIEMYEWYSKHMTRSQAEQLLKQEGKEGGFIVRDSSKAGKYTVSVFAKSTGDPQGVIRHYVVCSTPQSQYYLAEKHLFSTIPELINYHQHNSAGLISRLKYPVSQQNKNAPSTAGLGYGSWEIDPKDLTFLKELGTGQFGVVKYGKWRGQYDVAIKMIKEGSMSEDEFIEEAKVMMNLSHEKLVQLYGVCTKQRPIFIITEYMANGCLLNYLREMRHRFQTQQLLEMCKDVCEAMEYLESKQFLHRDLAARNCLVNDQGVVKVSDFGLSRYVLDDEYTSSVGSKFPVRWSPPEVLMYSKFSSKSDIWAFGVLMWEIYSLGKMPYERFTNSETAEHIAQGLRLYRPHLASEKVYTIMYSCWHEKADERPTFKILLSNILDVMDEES

Lyn enzyme = Lyn enzyme (Homo sapiens (Human), UniProt P07948); test: Lyn enzyme activity, IMAP fluorescence polarization assay; details: 60 min pre-incubation, 2 μM ATP, bin bounds in μM
Chain of Lyn enzyme (P07948 whole entry): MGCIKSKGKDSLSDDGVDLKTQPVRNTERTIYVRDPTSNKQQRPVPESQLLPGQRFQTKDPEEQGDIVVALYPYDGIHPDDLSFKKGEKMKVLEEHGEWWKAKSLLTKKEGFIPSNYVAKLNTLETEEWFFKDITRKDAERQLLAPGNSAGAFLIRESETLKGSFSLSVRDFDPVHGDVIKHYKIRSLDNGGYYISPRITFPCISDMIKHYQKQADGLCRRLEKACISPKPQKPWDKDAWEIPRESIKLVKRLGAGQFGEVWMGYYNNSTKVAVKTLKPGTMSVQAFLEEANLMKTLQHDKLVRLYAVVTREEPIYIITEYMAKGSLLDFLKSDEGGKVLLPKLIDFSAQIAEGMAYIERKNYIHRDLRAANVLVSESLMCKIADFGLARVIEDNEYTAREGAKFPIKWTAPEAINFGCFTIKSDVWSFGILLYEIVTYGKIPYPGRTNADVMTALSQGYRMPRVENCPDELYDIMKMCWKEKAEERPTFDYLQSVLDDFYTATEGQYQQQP

Chain of Lck enzyme (P06239 whole entry): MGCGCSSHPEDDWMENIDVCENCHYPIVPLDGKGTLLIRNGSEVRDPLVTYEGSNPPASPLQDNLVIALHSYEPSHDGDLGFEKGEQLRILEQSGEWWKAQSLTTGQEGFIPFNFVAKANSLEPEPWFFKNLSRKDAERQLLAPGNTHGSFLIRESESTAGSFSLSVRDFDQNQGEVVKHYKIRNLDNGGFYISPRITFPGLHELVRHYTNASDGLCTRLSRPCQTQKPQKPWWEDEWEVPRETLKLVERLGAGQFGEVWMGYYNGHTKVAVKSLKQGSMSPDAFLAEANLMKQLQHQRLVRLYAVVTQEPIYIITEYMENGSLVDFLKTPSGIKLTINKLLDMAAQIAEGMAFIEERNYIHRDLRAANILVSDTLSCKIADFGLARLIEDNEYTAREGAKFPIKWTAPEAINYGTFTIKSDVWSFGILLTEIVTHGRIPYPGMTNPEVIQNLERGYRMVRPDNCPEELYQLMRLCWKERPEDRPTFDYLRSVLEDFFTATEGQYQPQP

Compound: CC#CC(=O)N1CCC[C@H]1c1nc(-c2ccc(C(=O)Nc3nccs3)cc2)c2c(N)nccn12 [Example 60, (S)-4-(8-amino-3-(1-but-2-ynoylpyrrolidin-2-yl)imidazo[1,5-a]pyrazin-1-yl)-N-(thiazol-2-yl)benzamide]
- EC50 Lck activity values (Lck enzyme): <1 µM
- EC50 Btk activity values (Btk enzyme (His-Btk)): <100 nM
- EC50 Lyn activity values (Lyn enzyme): <1 µM

Compound: C=CC(=O)N1CCC[C@H]1c1nc(-c2ccc(C(=O)Nc3cc(C)ccn3)cc2)c2c(N)nccn12 [Example 124, (S)-4-(3-(1-acryloylpyrrolidin-2-yl)-8-aminoimidazo[1,5-a]pyrazin-1-yl)-N-(4-methylpyridin-2-yl)benzamide]
- EC50 Lck activity values (Lck enzyme): <1 µM
- EC50 Lyn activity values (Lyn enzyme): <1 µM

Compound: C=CC(=O)N1CCC[C@H]1c1nc(-c2ccc(C(=O)Nc3cc(CCC)ccn3)cc2)c2c(N)nccn12 [Example 125, (S)-4-(3-(1-acryloylpyrrolidin-2-yl)-8-aminoimidazo[1,5-a]pyrazin-1-yl)-N-(4-propylpyridin-2-yl)benzamide]
- EC50 Lck activity values (Lck enzyme): <1 µM
- EC50 Lyn activity values (Lyn enzyme): <1 µM

Compound: C=CC(=O)N1CCC[C@H]1c1nc(-c2ccc(C(=O)Nc3cc(CC)ccn3)cc2)c2c(N)nccn12 [Example 126, (S)-4-(3-(1-acryloylpyrrolidin-2-yl)-8-aminoimidazo[1,5-a]pyrazin-1-yl)-N-(4-ethylpyridin-2-yl)benzamide]
- EC50 Lck activity values (Lck enzyme): <1 µM
- EC50 Lyn activity values (Lyn enzyme): <1 µM

Compound: C=CC(=O)N1CCC[C@H]1c1nc(-c2ccc(C(=O)Nc3cc(-c4ccccc4)ccn3)cc2)c2c(N)nccn12 [Example 133, (S)-4-(3-(1-acryloylpyrrolidin-2-yl)-8-aminoimidazo[1,5-a]pyrazin-1-yl)-N-(4-phenylpyridin-2-yl)benzamide]
- EC50 Lck activity values (Lck enzyme): <1 µM
- EC50 Lyn activity values (Lyn enzyme): <1 µM
